{
  "source": "paper PMC3510490",
  "about": "“Structure of Actin-related protein 8 and its contribution to nucleosome binding” (Nucleic Acids Research, 2012)",
  "key": {"yeast Arp8": {"molecular_target": "T1, yeast Arp8 (Saccharomyces cerevisiae, UniProt Q12386)", "T1 construct": "recombinant from HighFive insect cells, prepared as described previously; monomer", "T1 sequence (Q12386 1-881)": "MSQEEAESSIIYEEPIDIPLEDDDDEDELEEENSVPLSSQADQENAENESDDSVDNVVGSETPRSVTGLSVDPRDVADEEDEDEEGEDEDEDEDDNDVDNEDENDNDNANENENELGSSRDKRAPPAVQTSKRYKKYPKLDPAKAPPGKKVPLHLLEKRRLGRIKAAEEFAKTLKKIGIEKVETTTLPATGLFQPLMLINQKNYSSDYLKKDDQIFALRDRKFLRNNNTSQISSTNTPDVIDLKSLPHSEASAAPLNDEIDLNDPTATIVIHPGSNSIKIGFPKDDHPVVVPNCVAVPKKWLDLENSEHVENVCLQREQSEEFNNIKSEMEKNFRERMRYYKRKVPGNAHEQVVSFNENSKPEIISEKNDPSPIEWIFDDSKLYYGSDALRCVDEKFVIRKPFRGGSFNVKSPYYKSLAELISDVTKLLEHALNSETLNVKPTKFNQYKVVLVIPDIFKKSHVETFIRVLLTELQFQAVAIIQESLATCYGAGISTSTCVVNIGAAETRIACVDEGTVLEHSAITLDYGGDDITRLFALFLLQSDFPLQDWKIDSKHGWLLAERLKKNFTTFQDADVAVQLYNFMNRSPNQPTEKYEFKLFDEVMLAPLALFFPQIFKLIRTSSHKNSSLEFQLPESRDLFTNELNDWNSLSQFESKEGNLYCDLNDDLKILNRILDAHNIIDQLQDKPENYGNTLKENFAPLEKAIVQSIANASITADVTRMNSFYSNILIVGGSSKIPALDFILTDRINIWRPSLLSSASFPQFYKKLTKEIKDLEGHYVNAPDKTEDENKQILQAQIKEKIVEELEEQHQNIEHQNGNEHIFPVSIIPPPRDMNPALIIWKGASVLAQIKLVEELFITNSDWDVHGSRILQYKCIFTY", "assay": "[…] phosphate release, TLC", "type": "biochemical", "details": "100 µM ATP with 5 nM [γ-32P]ATP (labelled compound), 2 mM MgCl2, pH 7.9, 30 °C"}, "[1]": {"molecular_target": "T2, Homo sapiens Arp8 (Δ1–33) (Homo sapiens, UniProt Q9H981)", "T2 construct": "gene ACTR8; N-terminal 8xHis tag cleaved by PreScission protease; E. coli BL21(DE3); monomer", "T2 sequence (Q9H981 34-624, stated change not applied)": "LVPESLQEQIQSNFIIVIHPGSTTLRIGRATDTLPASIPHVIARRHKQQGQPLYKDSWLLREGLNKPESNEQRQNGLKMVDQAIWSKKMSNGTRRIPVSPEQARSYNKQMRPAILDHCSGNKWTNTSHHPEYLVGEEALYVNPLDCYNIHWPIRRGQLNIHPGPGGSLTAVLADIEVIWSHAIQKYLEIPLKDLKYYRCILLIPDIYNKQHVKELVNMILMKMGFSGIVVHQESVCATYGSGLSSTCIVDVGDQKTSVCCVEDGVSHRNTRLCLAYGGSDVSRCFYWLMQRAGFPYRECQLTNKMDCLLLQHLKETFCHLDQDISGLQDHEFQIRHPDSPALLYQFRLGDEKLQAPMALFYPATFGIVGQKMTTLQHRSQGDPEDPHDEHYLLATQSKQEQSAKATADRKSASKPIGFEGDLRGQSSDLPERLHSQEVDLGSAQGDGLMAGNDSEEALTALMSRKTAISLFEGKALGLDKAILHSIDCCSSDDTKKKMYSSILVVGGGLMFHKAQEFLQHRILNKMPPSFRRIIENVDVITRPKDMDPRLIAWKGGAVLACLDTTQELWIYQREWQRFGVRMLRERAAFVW", "assay": "X-ray crystal structure, […] Å", "details": "ATP co-purified from expression host, not added; one metal ion (likely Mg2+); nucleotide-binding cleft; pH 6.1"}, "[2]": {"molecular_target": "T3, Saccharomyces cerevisiae INO80 sub-complex I (Arp8–Arp4–actin-HSA) (Saccharomyces cerevisiae, UniProt P60010+Q12386)", "T3 construct": "co-expressed Arp4, Arp8, actin and His6-Ino80(462-685) in HighFive insect cells; monomeric complex; with Actin-related protein 4; Chromatin-remodeling ATPase INO80", "assay": "[…] phosphate release, TLC", "type": "biochemical", "details": "100 µM ATP with 5 nM [γ-32P]ATP (labelled compound), 2 mM MgCl2, pH 7.9, 30 °C; active subunit not resolved (Arp8 and/or actin)"}, "human Arp8": {"molecular_target": "T4, human Arp8 (Homo sapiens, UniProt Q9H981)", "T4 construct": "gene ACTR8; monomer", "T4 sequence (Q9H981 whole entry)": "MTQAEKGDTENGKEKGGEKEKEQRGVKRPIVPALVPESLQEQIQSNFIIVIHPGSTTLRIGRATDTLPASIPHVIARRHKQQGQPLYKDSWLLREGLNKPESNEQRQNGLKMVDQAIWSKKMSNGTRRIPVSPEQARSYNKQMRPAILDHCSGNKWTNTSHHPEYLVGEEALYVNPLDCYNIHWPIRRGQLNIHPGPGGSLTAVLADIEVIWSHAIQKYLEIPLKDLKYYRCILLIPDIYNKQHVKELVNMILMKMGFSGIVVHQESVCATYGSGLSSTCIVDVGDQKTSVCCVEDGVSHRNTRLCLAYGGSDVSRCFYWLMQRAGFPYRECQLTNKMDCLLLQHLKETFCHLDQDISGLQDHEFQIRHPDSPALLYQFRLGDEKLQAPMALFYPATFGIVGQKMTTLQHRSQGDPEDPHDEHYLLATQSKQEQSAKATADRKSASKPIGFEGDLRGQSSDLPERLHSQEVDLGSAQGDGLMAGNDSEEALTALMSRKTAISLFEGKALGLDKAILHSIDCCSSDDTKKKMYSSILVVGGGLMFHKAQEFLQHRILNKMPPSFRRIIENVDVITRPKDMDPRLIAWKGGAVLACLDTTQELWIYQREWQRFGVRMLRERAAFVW", "assay": "[…] phosphate release, TLC", "type": "biochemical", "details": "100 µM ATP with 5 nM [γ-32P]ATP (labelled compound), 2 mM MgCl2, pH 7.9, 30 °C; construct (full-length or Δ1-33) not stated"}},
  "data": [
    {"smiles": "Nc1ncnc2c1ncn2[C@@H]1O[C@H](COP(=O)(O)OP(=O)(O)OP(=O)(O)O)[C@@H](O)[C@H]1O", "note": "[ATP]", "values": [
      {"measurement": "low basal ATPase activity", "setting": "yeast Arp8", "result": "yeast and human Arp8 possess a low basal ATPase activity"},
      {"measurement": "X-ray crystal structure, 2.6 Å", "setting": "[1]", "result": "Electron density in the nucleotide-binding cleft of actin could clearly be assigned to ATP"},
      {"measurement": "low basal ATPase activity", "setting": "[2]", "result": "sub-complex I (Arp8–Arp4–actin-HSA) also shows a low basal ATPase activity"},
      {"measurement": "low basal ATPase activity", "setting": "human Arp8", "result": "yeast and human Arp8 possess a low basal ATPase activity"}
    ]}
  ]
}
